In US12302902B2, “Antimicrobial compositions, including antimicrobial hydrogels, effective against mature biofilms” (Cormedix Inc., priority 2017, dated 2025):

Experiments:
P. aeruginosa = conditions: cited from earlier work
[1] = tested on: Pseudomonas aeruginosa (PAO1) biofilm; assay: Ex vivo biofilm porcine skin explant model, bacterial load after treatment with hydrogel; format: cell-based; conditions: 3 day cultured PA01 explants, treated with 1 ml solution, cell count Day 4
Microbes = conditions: cited from earlier work

In the case of NC[C@H]1O[C@H](O[C@H]2[C@H](O)[C@@H](O[C@H]3O[C@H](CO)[C@@H](O)[C@H](N)[C@H]3O)[C@H](N)C[C@@H]2N)[C@H](N)C[C@@H]1O [tobramycin], the “reduction of biofilm cell counts” value (P. aeruginosa; P. aeruginosa biofilm, tobramycin levels far in excess of the MIC) is listed as “approximately 2 logs” and the “decrease in planktonic cells” value (P. aeruginosa; P. aeruginosa planktonic cells, same dosage) is listed as over 8 log.

With gentamicin the “PA01 AVG (average CFU/ml of sonicated explant bacterial suspension)” value [1] was 3.45E+07 CFU/ml.

For O=S1(=O)CCN(CN2CCS(=O)(=O)NC2)CN1 [Taurolidine, bis(1,1-dioxoperhydro-1,2,4-thiadiazinyl-4)-methane], the “destruction time in vitro” value (Microbes) is given as 30 min.
